What was measured:
Format in all cases: cell-based
[1] = test system: clinical strains of Staphylococcus aureus; assay: MIC, clinical strains of S. aureus; parameters: unit: μg/ml; conditions: microdilution, Muller Hinton broth-cation adjusted, 0.02% BSA, 0.2% acetic acid
Procedure, shortened: (§1)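 Broth microdilution in Mueller Hinton broth, inoculum adjusted to 5.0×10^5 cfu/ml, peptide tested at 0.125 to 128 μg/ml and incubated at 37° C. for 20 to 24 hours. MIC was the lowest concentration with no visible growth. Yeasts were tested in potato dextrose broth.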

[2] = test system: clinical strains of Enterobacter cloacae; assay: MIC, clinical strains of Enterobacter cloacae; parameters: unit: μg/ml; conditions: microdilution, Muller Hinton broth-cation adjusted, 0.02% BSA, 0.2% acetic acid
Procedure, shortened: as §1

[3] = test system: clinical strains of Klebsiella pneumoniae; assay: MIC, clinical strains of K. pneumoniae; parameters: unit: μg/ml; conditions: microdilution, Muller Hinton broth-cation adjusted, 0.02% BSA, 0.2% acetic acid
Procedure, shortened: as §1

[4] = test system: clinical strains of Streptococcus pneumoniae; assay: MIC, clinical strains of Streptococcus pneumoniae; parameters: unit: µg/mL; conditions: microdilution, Muller Hinton broth-cation adjusted, 0.02% BSA, 0.2% acetic acid
Procedure, shortened: as §1

[5] = test system: clinical strains of Serratia marcescens; assay: MIC, clinical strains of Serratia marcescens; parameters: unit: µg/mL; conditions: microdilution, Muller Hinton broth-cation adjusted, 0.02% BSA, 0.2% acetic acid
Procedure, shortened: as §1

[6] = test system: clinical strains of Acinetobacter johnsonii; conditions: Acinetobacter johnsonii clinical strain 1; microdilution, Muller Hinton broth-cation adjusted, 0.02% BSA, 0.2% acetic acid
Protocol: (§2) Minimum inhibition concentrations (MICs) were determined against Escherichia coli (ATCC 25922), Staphylococcus aureus (ATCC 25923), Klebsiella pneumoniae (ATCC 10031) and Pseudomonas aeruginosa (ATCC 27853). Also clinical strains of E. coli, K. pneumoniae, E. cloacae, P. aeruginosa, Serratia marcescens, Proteus mirabilis, S. pneumoniae, Acinetobacter baumannii, A. johnsonii and S. aureus were used for MICs assays. Additionally, clinical strains of yeast including Candida albicans, C. glabrata, C. parapsilosis and C. quillermondiae were used. The susceptibility of these microorganisms to Chain peptides were determined using micro broth dilution assay. Colonies of the respective microorganism from Muller Hinton (MH) agar plates incubated overnight were suspended in MH broth media and final concentration of microorganism was adjusted to 5.0×10^5 cfu/ml. An aliquot of 10 μl of each Chain peptide, or gentamicin, tetracycline as reference antibiotics were added in differing concentrations along with 90 μl of bacterial suspension to 96 well polypropylene plates and incubated at 37° C. for 20 to 24 hours. Concentrations of Chain peptides and reference antibiotics ranged from 0.125 to 128 μg/ml and the MICs were recorded as the lowest concentration with no visual growth of bacteria. Similarly, antifungal MICs were tested in Potato dextrose broth.
(§3) Clinical strains of yeasts including Candida albicans, C. glabrata, C. parapsilosis and C. quillermondiae were also tested with the 12 Chain peptides. The minimum inhibitory concentration (MICs) varied between these peptides and are presented in Tables 4a, 4b, 4c and 5a, 5b, 5c. Peptides Chain 105, 201 and 308 are broad spectrum antimicrobials with MICs between 0.5-32 μg/ml against all the bacteria and yeasts tested, except Serratia marcescens and Proteus mirabilis, against which the MICs were between 64-128 μg/ml. Peptide Chain 306 has narrow spectrum activity against E.coli at 1 μg/ml and for the rest of the bacterial strains at >32 μg/ml (FIG. 10).

[7] = test system: clinical strains of Proteus mirabilis; assay: MIC, clinical strains of Proteus mirabilis; parameters: unit: µg/mL; conditions: microdilution, Muller Hinton broth-cation adjusted, 0.02% BSA, 0.2% acetic acid
Procedure, shortened: as §1

[8] = test system: clinical strains of Pseudomonas aeruginosa; assay: MIC, clinical strains of P. aeruginosa; parameters: unit: μg/ml; conditions: microdilution, Muller Hinton broth-cation adjusted, 0.02% BSA, 0.2% acetic acid
Procedure, shortened: as §1

[9] = test system: clinical strains of Escherichia coli; assay: MIC, clinical strains of E. coli; parameters: unit: μg/ml; conditions: microdilution, Muller Hinton broth-cation adjusted, 0.02% BSA, 0.2% acetic acid
Procedure, shortened: as §1

[10] = test system: clinical strains of Acinetobacter baumannii; assay: MIC, clinical strains of Acinetobacter baumannii; conditions: microdilution, Muller Hinton broth-cation adjusted, 0.02% BSA, 0.2% acetic acid
Protocol: as §2, §3

## Gentamicin [reference compound]
[1]; Staphylococcus aureus clinical strain 1
  Minimum inhibitory concentration: 0.5
[1]; Staphylococcus aureus clinical strain 2
  Minimum inhibitory concentration: 0.5
[1]; Staphylococcus aureus clinical strain 3
  Minimum inhibitory concentration: 0.5
[1]; Staphylococcus aureus clinical strain 4
  Minimum inhibitory concentration: 0.5
[1]; Staphylococcus aureus clinical strain 5
  Minimum inhibitory concentration: 0.5
[2]; Enterobacter cloacae clinical strain 1
  Minimum inhibitory concentration: 0.25
[2]; Enterobacter cloacae clinical strain 2
  Minimum inhibitory concentration: 0.25
[2]; Enterobacter cloacae clinical strain 3
  Minimum inhibitory concentration: 0.25
[2]; Enterobacter cloacae clinical strain 4
  Minimum inhibitory concentration: 0.25
[2]; Enterobacter cloacae clinical strain 5
  Minimum inhibitory concentration: 0.25
[3]; Klebsiella pneumoniae clinical strain 1
  Minimum inhibitory concentration: 2
[3]; Klebsiella pneumoniae clinical strain 2
  Minimum inhibitory concentration: 0.25
[3]; Klebsiella pneumoniae clinical strain 3
  Minimum inhibitory concentration: 2
[3]; Klebsiella pneumoniae clinical strain 4
  Minimum inhibitory concentration: 2
[3]; Klebsiella pneumoniae clinical strain 5
  Minimum inhibitory concentration: 4
[4]; Streptococcus pneumoniae clinical strain 1
  Minimum inhibitory concentration: 2
[4]; Streptococcus pneumoniae clinical strain 2
  Minimum inhibitory concentration: 2
[4]; Streptococcus pneumoniae clinical strain 3
  Minimum inhibitory concentration: 2
[4]; Streptococcus pneumoniae clinical strain 4
  Minimum inhibitory concentration: 2
[4]; Streptococcus pneumoniae clinical strain 5
  Minimum inhibitory concentration: 1
[5]; Serratia marcescens clinical strain 1
  Minimum inhibitory concentration: 1
[5]; Serratia marcescens clinical strain 2
  Minimum inhibitory concentration: 2
[5]; Serratia marcescens clinical strain 3
  Minimum inhibitory concentration: 1
[5]; Serratia marcescens clinical strain 4
  Minimum inhibitory concentration: 1
[5]; Serratia marcescens clinical strain 5
  Minimum inhibitory concentration: 1
[6]
  Minimum inhibitory concentration: 0.25
[7]; Proteus mirabilis clinical strain 1
  Minimum inhibitory concentration: 2
[7]; Proteus mirabilis clinical strain 2
  Minimum inhibitory concentration: 2
[7]; Proteus mirabilis clinical strain 3
  Minimum inhibitory concentration: >128
[7]; Proteus mirabilis clinical strain 4
  Minimum inhibitory concentration: 8
[7]; Proteus mirabilis clinical strain 5
  Minimum inhibitory concentration: >128
[8]; Pseudomonas aeruginosa clinical strain 1
  Minimum inhibitory concentration: 1
[8]; Pseudomonas aeruginosa clinical strain 2
  Minimum inhibitory concentration: 0.5
[8]; Pseudomonas aeruginosa clinical strain 3
  Minimum inhibitory concentration: 0.5
[8]; Pseudomonas aeruginosa clinical strain 4
  Minimum inhibitory concentration: 0.5
[8]; Pseudomonas aeruginosa clinical strain 5
  Minimum inhibitory concentration: 0.25
[9]; Escherichia coli clinical strain 1
  Minimum inhibitory concentration: 0.5
[9]; Escherichia coli clinical strain 2
  Minimum inhibitory concentration: 0.5
[9]; Escherichia coli clinical strain 3
  Minimum inhibitory concentration: 1
[9]; Escherichia coli clinical strain 4
  Minimum inhibitory concentration: 1
[9]; Escherichia coli clinical strain 5
  Minimum inhibitory concentration: 1
[10]; Acinetobacter baumannii clinical strain 1
  Minimum inhibitory concentration: 0.5
[10]; Acinetobacter baumannii clinical strain 2
  Minimum inhibitory concentration: 0.25
[10]; Acinetobacter baumannii clinical strain 3
  Minimum inhibitory concentration: 0.5
[10]; Acinetobacter baumannii clinical strain 4
  Minimum inhibitory concentration: 0.5
[10]; Acinetobacter baumannii clinical strain 5
  Minimum inhibitory concentration: 0.25
